Experimental data: paper PMC5471928 (2017)

Columns and labels:
[1] = tested on: c-kit2 (DNA, G4) CCCGGGCGGGCGCGAGGGAGGGGAGG; experiment: fluorescence light-up; conditions: K+ 100 mM; 10 mM Tris-HCl pH 7.4; 5 µM each; quantum yield 0.13 against 0.08 free
[2] = tested on: hTel22 (DNA, G4) AGGGTTAGGGTTAGGGTTAGGG; experiment: circular dichroism (induced CD); conditions: K+ 100 mM; 4 µM G4, 16 µM c-exNDI
[3] = tested on: ssDNA (DNA, single strand) GGATGTGAGTGTGAGTGTGAGG; experiment: UV-vis absorption titration; conditions: K+ 100 mM; 10 mM Tris-HCl pH 7.4; 5 µM c-exNDI; apparent
[4] = tested on: c-kit1 (DNA, G4) AGGGAGGGCGCTGGGAGGAGGG; experiment: UV-vis absorption titration; conditions: K+ 100 mM; 10 mM Tris-HCl pH 7.4; 5 µM c-exNDI; apparent
[5] = tested on: dsDNA (DNA, duplex) CAATCGGATCGAATTCGATCCGATTG; experiment: UV-vis absorption titration; conditions: K+ 100 mM; 10 mM Tris-HCl pH 7.4; 5 µM c-exNDI; apparent
[6] = tested on: TBA (DNA, G4) GGTTGGTGTGGTTGG; experiment: UV-vis absorption titration; conditions: K+ 100 mM; 10 mM Tris-HCl pH 7.4; 5 µM c-exNDI; apparent
[7] = tested on: c-myc (DNA, G4) TGAGGGTGGGTAGGGTGGGTAA; experiment: UV-vis absorption titration; conditions: K+ 100 mM; 10 mM Tris-HCl pH 7.4; 5 µM c-exNDI; apparent; main text prints error ± 0.3
[8] = tested on: HRAS (DNA, G4) TCGGGTTGCGGGCGCAGGGCACGGGCG; experiment: UV-vis absorption titration; conditions: K+ 100 mM; 10 mM Tris-HCl pH 7.4; 5 µM c-exNDI; apparent; overall constant of 2:1 model
[9] = tested on: hTel22 (DNA, G4) AGGGTTAGGGTTAGGGTTAGGG; experiment: fluorescence titration; conditions: K+ 100 mM; 10 mM Tris-HCl pH 7.4; 5 µM c-exNDI; apparent
[10] = tested on: hTel22 (DNA, G4) AGGGTTAGGGTTAGGGTTAGGG; experiment: UV-vis absorption titration; conditions: 10 mM Tris-HCl pH 7.4, 5 µM c-exNDI, apparent

binding [1]: yes
binding [2]: yes
K1:1 [3]: 2.85±0.01x10^5 M^-1
K1:1 [4]: 4.82±0.04x10^6 M^-1
K1:1 [5]: 7.41±0.03x10^3 M^-1
K1:1 [6]: 1.2±0.5x10^5 M^-1
K1:1 [7]: 3.43±0.03x10^7 M^-1
K1:2 [8]: 3.0±0.3x10^10 M^-2
K1:1 [9]: 5.34±0.03x10^6 M^-1
K1:1 ([10]; K+ 100 mM): 5.37±0.06x10^6 M^-1
K1:2 ([10]; Na+ 100 mM, overall constant of 2:1 model): 3.0±0.3x10^11 M^-2
Compound: CN(C)CCCn1c(=O)c2ccc3c(=O)n(CCCN(C)C)c(=O)c4c5[nH]c6ccccc6[nH]c5c(c1=O)c2c34
